From PubChem BioAssay AID179 (DTP/NCI, 2004)
“And” between values parts separate entries of the source, which are not always exact repeats. Identical values can stand only once. The source made the active and inactive calls.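 Rule for the calls: active = compounds giving half or more protection of infected cells from virus-caused growth loss, again on retest; inactive = the rest.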 Where a SMILES comes first, the peptide text is derived from it. The star is where a group is joined. Cbz = O=C(OCc1ccccc1)*

System: CEM cells HIV-1 protection, formazan growth assay
Assay: NCI AIDS Antiviral Assay
Conditions: for IC50: measured here: growth of uninfected CEM cells
How it was run: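 Category rules: moderately active means at least 50% protection on retest, and confirmed active means 100% protection reproducibly. The underlying data came from a formazan growth assay in HIV-1-infected CEM cells.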

| Compound | EC50 | IC50 | outcome |
| --- | --- | --- | --- |
| CCOC(=O)C(=C/C=C/NCCc1c[nH]c2ccccc12)C(=O)OCC | > 10.7 µM | > 10.7 µM | – |
| N#Cc1c(/C=C/c2ccccc2)c2c([nH]c1=S)CCCCC2 | 339 µM | 501 µM | – |
| CCCC(=O)O[C@@H]1C(C)C2(O)C3C=C(C)C(=O)[C@@]3(O)CC(CO)=C[C@H]2C2C(C)(C)C21OC(=O)CCC (stereo not given in full) | – | – | inactive |
| N#CC12C(=O)N3C(=NC(c4ccccc4)NC3c3ccccc3)C1(C#N)C(c1ccccc1)NC1=C2CCC1 (stereo not given) | > 200 µM | > 200 µM | – |
| O=C(O)CCOCCCCCCCCCl | – | – | inactive |
| CCN(C(=O)N[C@@H](C)C(=O)N[C@@H](Cc1ccccc1)C(=O)OC)c1ccccc1 | – | – | inactive |
| Nc1nc(N)c(N=O)c(Nc2ccc(O)cc2)n1 | > 200 µM | 170 µM | – |
| CCC(=O)N1C(=O)C(CC)(CC)C(=O)N1C(=O)CC | > 200 µM | > 200 µM | – |
| C[C@]12CCCCC1(O)C[C@H](C(=O)O)CC2 (stereo not given in full) | – | – | inactive |
| COCCCC(NC(=O)C(CC(C)C)NC(=O)OCc1ccc(OC)cc1)C(N)=O (stereo not given) | > 200 µM | 182 µM | – |
| CCC(COC(/C=C1/C=CC(=O)O1)COC(=O)c1ccccc1)c1ccccc1 (stereo not given) | > 115 µM | 77.6 µM | – |
| CC[C@]1(O)C[C@H]2CN(CCc3c([nH]c4ccccc34)[C@@](C(=O)OC)(c3cc4c(cc3OC)N(C)[C@H]3[C@@](O)(C(=O)OC)[C@H](OC(C)=O)[C@]5(CC)C=CCN6CC[C@]43[C@@H]65)C2)C1 | > 0.0302 µM | 0.000355 µM | – |
| Cn1cnc([N+](=O)[O-])c1Sc1nccn1-c1ccccc1 | > 832 µM | 9.33 µM | – |
| CN(C)CCCNC(=O)c1cc(NC(=O)c2cc(NC(=O)c3cc(NC(=O)c4ccc(C(=O)Nc5cn(C)c(C(=O)Nc6cn(C)c(C(=O)Nc7cn(C)c(C(=O)NCCCN(C)C)n7)n6)n5)cc4)cn3C)cn2C)cn1C | > 50.1 µM | > 50.1 µM | – |
| CC12CCC(=O)[C@@]1(C)CCCC2=O (stereo not given in full) | – | – | inactive |
| CCCCCCCCCCCCCCCCC(C(=O)O)S(=O)(=O)O (stereo not given) | > 200 µM | 112 µM | – |
| COC1C(OC(N)=O)C(O)C(Oc2ccc3c(O)c(NC(=O)c4ccc(O)c(CC=C(C)C)c4)c(=O)oc3c2C)OC1(C)C (stereo not given) | > 389 µM | 79.4 µM | – |
| CC(=O)Nc1ccc(NC(=O)c2cccc3c(Nc4ccc(S(=O)(=O)Nc5cc(C)on5)cc4)c4ccccc4nc23)cc1 | > 200 µM | 23.4 µM | – |
| CCC[CH2][Sn]1([CH2]CCC)[O]CC(c2ccccn2)C[O]1 | > 49 µM | 10.7 µM | – |
| O=[N+]([O-])c1cc(Cl)ccc1S(=O)(=O)c1ccccc1 | > 200 µM | 30.2 µM and 55 µM | – |
| CCOC(=O)c1c2ccc(/C=C/c3ccccc3)ccc-2c(C(=O)OCC)c1N | > 7.08 µM | > 7.08 µM | – |

| Compound | EC50 | IC50 | outcome |
| --- | --- | --- | --- |
| CS(=O)(=O)NC(=O)C[P+](c1ccccc1)(c1ccccc1)c1ccccc1 | > 200 µM | > 200 µM | – |
| N#C/C=C\c1cccc(C#N)c1 | > 46.8 µM | > 46.8 µM | – |
| O=P(N1CC1)(N1CC1)N1CC2CCC(CC2)C1 | > 200 µM | 1.62 µM | – |
| OCCN1CCOC(O)(c2cccc(C(F)(F)F)c2)C1 (stereo not given) | > 200 µM | 115 µM | – |
| C/C(CC(=O)Nc1cc(Cl)c(Cl)cc1Cl)=N\NC(N)=O | > 21.4 µM | 2.75 µM | – |
| CC1=C(C(=O)Nc2cccc(C(F)(F)F)c2)C(c2ccccc2F)C(C(=O)Nc2cccc(C(F)(F)F)c2)=C(C)N1 | > 32.4 µM | 18.6 µM | – |
| COc1ccc2c(c1)N(S(=O)(=O)c1ccc(C)cc1)C[C@@H]1c3cc(O)c(OCc4ccccc4)cc3O[C@H]21 | – | – | inactive |
| O=C1c2ccccc2C(=O)N1CCc1ncc[nH]1 | > 200 µM | > 200 µM | – |
| Cc1ccc(S(=O)(=O)N2CC3OC(C)(C)OC3C2CO)cc1 (stereo not given) | – | – | inactive |
| CCCCCCCCCCCCCC(=O)OC1C(O)C(CO)OC(OC)C1NC(=O)N(CCCl)N=O (stereo not given) | > 34.7 µM | > 34.7 µM | – |
| Cc1ccc2c(CC(=O)O)cc(=O)oc2c1 | > 229 µM | 38.9 µM | – |
| O=C(O)CNc1c2ccccc2nc2ccccc12 | – | – | inactive |
| c1ccc(OCCSCCCCCCCCCCSCCOc2ccccc2)cc1 | > 8.51 µM | > 8.51 µM | – |
| O=C(NCc1ccccc1)c1n[nH][nH]c1=O | > 200 µM | > 200 µM | – |
| CC1(C)Oc2ccc(NC(=O)CCC(N)C(=O)O)cc2O1 (stereo not given) | 186 µM | > 200 µM | – |
| COc1cc(C)cc2c1C(=O)C(Br)(Br)CC2 | > 2 µM | 0.955 µM | – |
| CCOC(=O)C(C(=O)OCC)=C1N[C@H](C(=O)OCC)CS1 | > 295 µM | > 295 µM | – |
| Cc1csc2nc3[nH]ncc3c(=O)n12 | > 200 µM | 97.7 µM | – |
| CC1=NNC(=O)[C@H]2[C@H]1CCC1[C@@H]2CC[C@]2(C)[C@@H](O)CC[C@@H]12 (stereo not given in full) | > 200 µM | > 200 µM | – |
| Cn1ncc2c(Nc3ccc(Cl)cc3)c3ccccc3nc21 | – | – | inactive |
| CCOC(=O)c1c(-c2ccc(OC)c(O)c2)c(C#N)c(=S)n(C2OC(CO)C(O)C(O)C2O)c1-c1ccccc1 (stereo not given) | > 200 µM | > 200 µM | – |

| Compound | EC50 | IC50 | outcome |
| --- | --- | --- | --- |
| Cc1nc2c3c(Cc4ccccc4)c(C)[nH]c3ncn2n1 | > 200 µM | 117 µM | – |
| NS(=O)(=O)c1cc2c(cc1Cl)NC(C(=O)NNC(=O)c1ccncc1)=NS2(=O)=O | > 77.6 µM | > 77.6 µM | – |
| C[C@H]1CC[C@@]2(OC1)O[C@H]1C[C@H]3[C@@H]4CC[C@@H]5C[C@@H](OC6OC(CO)C(O)C(O)C6OC6OC(CO)C(O)C(O)C6O)CC[C@]5(C)[C@H]4CC[C@]3(C)[C@H]1[C@@H]2C (stereo not given in full) | > 200 µM | 5.25 µM | – |
| CC(=O)Oc1ccccc1C(=O)O | > 380 µM | > 380 µM | – |
| O=C(CSc1nnc(Cc2ccccc2)o1)Nc1ccc(Cl)cc1Cl | > 66.1 µM | > 66.1 µM | – |
| Cc1ccc(S(=O)(=O)N2CCCSCCSCCCSCC2)cc1 | > 17.8 µM | > 17.8 µM | – |
| Cn1c(=O)c2nc(NCc3ccccc3)sc2n(C)c1=O | > 61.7 µM | > 61.7 µM | – |
| CC1=C(C(=O)Nc2ccccc2C)C(c2ccc(Cl)cc2)C(C(=O)Nc2ccccc2C)=C(C)N1 | > 2.95 µM | > 2.95 µM | – |
| CCCCCCCCCCCCCCCC[N+](C)(C)CCCS(=O)(=O)[O-] | – | – | inactive |
| O=C(NC(=Nc1ccccc1)SCSC(=Nc1ccccc1)NC(=O)c1ccccc1F)c1ccccc1F | > 200 µM | 28.8 µM | – |
| Clc1cccc(NC(c2ccccc2)=[N+]2CCCCC2)c1 | > 200 µM | 30.9 µM | – |
| Cc1ccc(S(=O)(=O)n2cncc2CO)cc1 | > 200 µM | > 200 µM | – |
| CN1CCc2c([nH]c3ccccc23)C1 | > 200 µM | > 200 µM | – |
| CSc1nc2c(=O)oc(-c3ccccc3)nc2s1 | > 200 µM | 6.03 µM | – |
| CCCCn1c(C)c(C(=O)OCC)c2cc(OCc3ccc(C(=O)Nn4c(C)ccc4C)cc3)c(Br)cc21 | > 95.5 µM | > 95.5 µM | – |
| CN(C)Cc1ccccc1CCO | > 200 µM | > 200 µM | – |
| Cc1ccc(N=C2C(c3ccccc3)=C(SC3=C(c4ccccc4)C(=Nc4ccc(C)cc4)c4ccccc43)c3ccccc32)cc1 | > 200 µM | 174 µM | – |
| COc1ccc2c(c1)C(N)=C(c1ccccc1)C2=O | > 200 µM | 75.9 µM | – |
| CCN(N=O)C1C2(CCCC2)NC(=O)C12CCCC2 (stereo not given) | – | – | inactive |
| Cc1ccc(C)c(NC(=O)CC2C(=O)Nc3ccccc3S2(=O)=O)c1 (stereo not given) | > 4.07 µM | > 4.07 µM | – |
| O=S(=O)(O)OCCOc1ccc(S(=O)(=O)c2ccc(OCCOS(=O)(=O)O)cc2)cc1 | > 200 µM | > 200 µM | – |

| Compound | EC50 | IC50 | outcome |
| --- | --- | --- | --- |
| [Co].[NH-]CC[NH-].[NH-]CC[NH-].[NH-]CC[NH-] | > 200 µM | > 200 µM | – |
| CC1(C)CC(=O)C2=C(C1)NC(SSC1=C(C#N)C(c3ccccc3)C3=C(CC(C)(C)CC3=O)N1)=C(C#N)C2c1ccccc1 (stereo not given) | > 112 µM | 15.5 µM | – |
| COc1cccc(NC(=S)/C(=C(\[O-])c2ccc([N+](=O)[O-])cc2)[n+]2ccc(C(C)C)cc2)c1 | > 200 µM | > 200 µM | – |
| CC(C)C(=O)C(C)(C)C(=O)C(C)(C)C(=O)OC(C)(C)C | > 200 µM | > 200 µM | – |
| CCOC(=O)C(CC(=O)OC)NC(=O)C(CC(=O)OC)NC(=O)C(CC(=O)OC)NC(=O)C(CC(=O)OC)NC(=O)OCc1ccccc1 (stereo not given) (Cbz-D(OMe)D(OMe)D(OMe)D(OMe)-OEt; configuration not given here) | > 200 µM | > 200 µM | – |
| C=CCCCN1CCCC(C)C1=S (stereo not given) | > 251 µM | > 251 µM | – |
| COc1ccc(-c2c3ccccc3c(-c3ccc(OCCBr)cc3)c3ccccc23)cc1 | > 100 µM | > 100 µM | – |
| COc1ccc(-c2cc(=O)c3c(OC)c(OC)c(OC)c(OC)c3o2)cc1OC | > 200 µM | 33.9 µM | – |
| Cc1ccc2ccc(=O)oc2c1 | > 309 µM | > 309 µM | – |
| CC(C)NC1CCCCC2c3ccccc3C12O (stereo not given) | 145 µM | > 200 µM | – |
| Cc1cc(C)c2c(c1)CSCc1cc(C)cc(C)c1-2 | – | – | inactive |
| CCOC(=O)C(=Cc1ccc(C#N)cc1)C(=O)OCC | > 132 µM | 8.91 µM | – |
| O=C(NCc1ccccc1)/C(=C/c1ccccc1)NC(=O)c1ccccc1 | > 200 µM | > 200 µM | – |
| COC(=O)C(NC(=O)c1ccccc1)C(c1c(O)cc(O)cc1O)P(=O)(OC)OC (stereo not given) | > 16.2 µM | > 16.2 µM | – |
| O=C(/C=C\c1ccccc1)Oc1ccc(/C=C2\CCC/C(=C\c3ccc(OC(=O)/C=C\c4ccccc4)cc3)C2=O)cc1 | > 100 µM | > 100 µM | – |
| COc1ccc2oc(C(=O)O)c3c2c1CCC3 | – | – | inactive |
| CCOC(=O)C1C=C1C(C)(C)O (stereo not given) | > 151 µM | 135 µM | – |
| Cc1nc(C)c(N2CCN(Cc3ccccc3)CC2)c(=O)[nH]1 | > 200 µM | > 200 µM | – |
| CC1(C)Oc2ccc3c(=O)cc(-c4ccc(F)cc4)oc3c2C1C(=O)O (stereo not given) | > 200 µM | > 200 µM | – |
| C[C@H](CCc1nc(C#N)c(N)o1)[C@H]1CC[C@H]2[C@@H]3CCC4C[C@@H](O)CC[C@]4(C)[C@H]3C[C@@H](O)[C@]12C (stereo not given in full) | > 20 µM | 1.95 µM | – |
| O=C(CSC1=NNC2(C(=O)N1)c1ccccc1-c1ccccc12)NC(=S)Nc1ccccc1 | > 200 µM | 25.7 µM | – |
